From ChEMBL document CHEMBL1201862, “PubChem BioAssay data set” (2004)
Activity calls are given as the source filed them.

Legend:
[1] = target: Fructose-bisphosphate aldolase (Mycobacterium tuberculosis, UniProt P9WQA3); experiment: Fluorescence-based biochemical high throughput dose response assay for inhibitors of the fructose-bisphosphate aldolase (FBA) of M. tuberculosis.; assay type: functional
[2] = target: Long-chain-fatty-acid--AMP ligase FadD28 (Mycobacterium tuberculosis, UniProt P9WQ59); experiment: Fluorescence polarization aasay to screen for inhibitors that compete for the binding of FadD28 to a bisubstrate Measured in Biochemical System Using Plate Reader - 2147-01_Inhibitor_Dose_CherryPick_Activity.; assay type: functional, Mycobacterium tuberculosis H37Rv
Chain of Long-chain-fatty-acid--AMP ligase FadD28 (P9WQ59 whole entry): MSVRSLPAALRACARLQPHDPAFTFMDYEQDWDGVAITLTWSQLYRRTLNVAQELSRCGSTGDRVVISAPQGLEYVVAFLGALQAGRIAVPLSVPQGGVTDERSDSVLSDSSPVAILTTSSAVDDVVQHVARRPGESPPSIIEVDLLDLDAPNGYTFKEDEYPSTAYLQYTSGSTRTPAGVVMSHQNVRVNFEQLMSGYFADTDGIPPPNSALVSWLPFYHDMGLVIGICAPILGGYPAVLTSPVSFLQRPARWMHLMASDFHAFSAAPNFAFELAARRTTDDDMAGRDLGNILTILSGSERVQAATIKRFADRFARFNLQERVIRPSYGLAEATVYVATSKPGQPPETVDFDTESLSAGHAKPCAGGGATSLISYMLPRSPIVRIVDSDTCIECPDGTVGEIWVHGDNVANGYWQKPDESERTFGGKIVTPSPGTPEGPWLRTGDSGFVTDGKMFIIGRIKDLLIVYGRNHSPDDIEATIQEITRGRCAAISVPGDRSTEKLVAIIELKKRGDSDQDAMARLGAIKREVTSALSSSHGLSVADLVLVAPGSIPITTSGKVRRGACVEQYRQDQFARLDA

[3] = target: T1, Probable nicotinate-nucleotide adenylyltransferase (Staphylococcus aureus (strain N315), UniProt P65502); assay type: functional, Staphylococcus aureus subsp. aureus N315; conditions: read-out: IC50_Mean;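 for IC50 Mean: confirmatory dose-response retesting of NadD inhibitor hits first found in an ultra-high-throughput screen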
T1 sequence (P65502 whole entry): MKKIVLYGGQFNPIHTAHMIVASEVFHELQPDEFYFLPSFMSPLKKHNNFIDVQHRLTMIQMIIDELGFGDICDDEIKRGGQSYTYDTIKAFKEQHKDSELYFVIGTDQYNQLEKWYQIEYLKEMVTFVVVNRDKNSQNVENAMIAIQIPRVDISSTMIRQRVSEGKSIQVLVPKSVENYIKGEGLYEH

[4] = target: T1, Probable nicotinate-nucleotide adenylyltransferase; assay type: functional, Staphylococcus aureus subsp. aureus N315
Aspartyl aminopeptidase = target: T2, Aspartyl aminopeptidase (Plasmodium falciparum 3D7, UniProt Q8I2J3); experiment: Counterscreen for inhibitors of M1 and M17 aminopeptidases: QFRET-based biochemical high throughput dose response assay for inhibitors of the Plasmodium falciparum M18 Aspartyl Aminopeptidase (PFM18AAP). [Related PubChem assays: 1619 (Screening assay (M17LAP inhibitors).), 1445 (Screening assay (M1AAP inhibitors).)]
T2 sequence (Q8I2J3 whole entry): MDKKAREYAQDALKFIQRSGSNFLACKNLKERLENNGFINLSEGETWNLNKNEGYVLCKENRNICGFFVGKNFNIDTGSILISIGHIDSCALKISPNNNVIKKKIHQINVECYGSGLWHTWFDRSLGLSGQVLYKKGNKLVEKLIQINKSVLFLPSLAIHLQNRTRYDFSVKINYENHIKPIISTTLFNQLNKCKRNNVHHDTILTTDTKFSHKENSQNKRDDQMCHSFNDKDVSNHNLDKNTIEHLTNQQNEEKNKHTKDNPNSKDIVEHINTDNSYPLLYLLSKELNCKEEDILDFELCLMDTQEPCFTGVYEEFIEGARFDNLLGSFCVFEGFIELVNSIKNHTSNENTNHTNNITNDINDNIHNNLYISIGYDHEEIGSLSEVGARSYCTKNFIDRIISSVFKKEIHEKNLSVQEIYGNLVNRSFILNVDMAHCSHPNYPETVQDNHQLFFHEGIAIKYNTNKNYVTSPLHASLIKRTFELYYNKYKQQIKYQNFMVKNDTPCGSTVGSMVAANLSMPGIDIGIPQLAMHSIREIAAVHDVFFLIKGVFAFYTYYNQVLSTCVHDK

Genome polyprotein = Genome polyprotein (dengue virus type 2, UniProt P29990); experiment: Dengue-2 NS5 methyltransferase inhibitors, primary screen, biochemical, confirmation dose response (AID 588689); assay type: functional
Procathepsin L = Procathepsin L (Homo sapiens, UniProt P07711); experiment: cathepsin L inhibitors, dose response, counter-screen for M1/M17 aminopeptidase inhibitor project, biochemical, QFRET, 1536-well (AID 2214)
Chain of Procathepsin L (P07711 whole entry): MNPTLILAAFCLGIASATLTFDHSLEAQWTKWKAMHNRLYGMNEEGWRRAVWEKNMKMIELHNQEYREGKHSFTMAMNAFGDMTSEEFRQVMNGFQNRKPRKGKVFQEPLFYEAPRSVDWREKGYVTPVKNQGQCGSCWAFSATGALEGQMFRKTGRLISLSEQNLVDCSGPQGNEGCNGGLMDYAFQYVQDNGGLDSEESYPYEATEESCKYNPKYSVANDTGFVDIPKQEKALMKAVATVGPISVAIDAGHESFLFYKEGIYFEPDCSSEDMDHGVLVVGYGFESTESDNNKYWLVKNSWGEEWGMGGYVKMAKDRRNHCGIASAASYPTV

fMet-Leu-Phe receptor = fMet-Leu-Phe receptor (Homo sapiens, UniProt P21462); experiment: FPR ligands, dose response (AID 519); assay type: functional
Chain of fMet-Leu-Phe receptor (P21462 whole entry): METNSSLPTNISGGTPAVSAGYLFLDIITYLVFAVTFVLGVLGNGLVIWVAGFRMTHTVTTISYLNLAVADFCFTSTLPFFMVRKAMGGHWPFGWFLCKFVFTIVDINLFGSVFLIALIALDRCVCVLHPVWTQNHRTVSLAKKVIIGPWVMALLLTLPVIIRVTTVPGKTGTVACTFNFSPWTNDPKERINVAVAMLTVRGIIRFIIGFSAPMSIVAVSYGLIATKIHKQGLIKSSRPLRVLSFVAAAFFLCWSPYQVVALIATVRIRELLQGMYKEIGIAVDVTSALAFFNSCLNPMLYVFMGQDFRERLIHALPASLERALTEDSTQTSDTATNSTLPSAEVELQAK

Leucine aminopeptidase = target: T3, Leucine aminopeptidase (Plasmodium falciparum 3D7, UniProt Q8IL11); experiment: P. falciparum M17LAP inhibitors, primary screen, biochemical, fluorogenic H-Leu-NHMec substrate, 1536-well (AID 1619); assay type: functional
T3 sequence (Q8IL11 whole entry): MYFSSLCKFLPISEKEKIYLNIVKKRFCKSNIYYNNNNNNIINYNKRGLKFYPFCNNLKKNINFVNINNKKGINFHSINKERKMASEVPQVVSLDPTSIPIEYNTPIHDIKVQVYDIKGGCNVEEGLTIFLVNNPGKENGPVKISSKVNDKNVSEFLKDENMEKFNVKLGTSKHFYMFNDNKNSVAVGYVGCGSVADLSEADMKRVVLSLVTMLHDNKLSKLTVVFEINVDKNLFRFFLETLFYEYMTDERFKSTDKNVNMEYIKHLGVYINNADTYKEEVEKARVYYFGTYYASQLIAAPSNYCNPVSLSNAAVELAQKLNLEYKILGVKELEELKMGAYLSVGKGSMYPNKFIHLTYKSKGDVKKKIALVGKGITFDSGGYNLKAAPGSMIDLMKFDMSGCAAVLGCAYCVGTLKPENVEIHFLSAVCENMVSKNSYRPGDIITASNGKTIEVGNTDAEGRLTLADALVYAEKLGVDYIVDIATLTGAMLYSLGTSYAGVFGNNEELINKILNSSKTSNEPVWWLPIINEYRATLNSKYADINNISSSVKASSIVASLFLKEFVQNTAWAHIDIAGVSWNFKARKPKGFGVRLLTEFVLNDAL

[5] = system: Streptococcus sp. 'group A'; experiment: growth inhibition of control SK(-) GAS strain, dose response, counter-screen for streptokinase expression inhibitor project, luminescence, kanamycin, BacTiterGlo, confirmation (AID 1900); assay type: functional, organism-based
Streptococcus = experiment: Group A Streptococcus viability loss, dose response, counter-screen for streptokinase expression inhibitor project, luminescence, BacTiterGlo (AID 1915); assay type: functional, organism-based;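 note: potency for reduction of bacterial viability or growth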
Streptokinase A = target: T4, Streptokinase A (Streptococcus pyogenes serotype M1, UniProt P10520); experiment: S. pyogenes streptokinase expression inhibitors, potency, dose response, plasminogen activation absorbance, OD405 (AID 1914); assay type: functional, Streptococcus pyogenes M1 GAS;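 note: secreted streptokinase activity via plasminogen activation per viability signal from cell pellet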
T4 sequence (P10520 whole entry): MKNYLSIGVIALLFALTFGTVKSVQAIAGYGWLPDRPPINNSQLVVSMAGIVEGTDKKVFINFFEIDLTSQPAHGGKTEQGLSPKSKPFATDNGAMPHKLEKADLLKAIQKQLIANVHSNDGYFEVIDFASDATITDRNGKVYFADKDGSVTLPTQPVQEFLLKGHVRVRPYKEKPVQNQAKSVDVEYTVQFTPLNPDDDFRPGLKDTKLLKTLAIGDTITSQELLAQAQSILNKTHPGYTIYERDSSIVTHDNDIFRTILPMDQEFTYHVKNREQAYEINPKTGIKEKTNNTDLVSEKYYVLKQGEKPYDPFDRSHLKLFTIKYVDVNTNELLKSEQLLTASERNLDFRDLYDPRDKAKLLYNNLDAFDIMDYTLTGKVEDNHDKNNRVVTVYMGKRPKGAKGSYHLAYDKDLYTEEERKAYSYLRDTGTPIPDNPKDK

Mu-type opioid receptor = Mu-type opioid receptor (Homo sapiens, UniProt P35372); assay type: functional, cell-based;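 note: U2OS cells with beta-arrestin recruitment to OPRM1 by beta-gal complementation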
Chain of Mu-type opioid receptor (P35372 whole entry): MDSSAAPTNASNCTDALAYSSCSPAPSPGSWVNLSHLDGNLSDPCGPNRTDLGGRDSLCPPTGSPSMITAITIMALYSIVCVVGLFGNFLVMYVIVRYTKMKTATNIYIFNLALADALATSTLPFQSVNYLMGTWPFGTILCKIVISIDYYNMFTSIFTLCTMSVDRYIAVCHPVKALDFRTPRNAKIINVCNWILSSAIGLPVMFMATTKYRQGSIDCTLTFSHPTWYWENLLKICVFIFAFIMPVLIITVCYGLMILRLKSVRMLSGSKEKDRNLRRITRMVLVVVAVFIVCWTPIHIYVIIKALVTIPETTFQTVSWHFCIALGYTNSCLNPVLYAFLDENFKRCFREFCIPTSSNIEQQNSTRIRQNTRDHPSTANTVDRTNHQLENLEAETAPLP

[6] = target: 5-hydroxytryptamine receptor 2A (Mus musculus, UniProt P35363); assay type: functional, cell-based;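 note: CHO-K1 cells with tagged receptor and beta-arrestin; agonist potency measured as compound-induced activation of the receptor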
Chain of 5-hydroxytryptamine receptor 2A (P35363 whole entry): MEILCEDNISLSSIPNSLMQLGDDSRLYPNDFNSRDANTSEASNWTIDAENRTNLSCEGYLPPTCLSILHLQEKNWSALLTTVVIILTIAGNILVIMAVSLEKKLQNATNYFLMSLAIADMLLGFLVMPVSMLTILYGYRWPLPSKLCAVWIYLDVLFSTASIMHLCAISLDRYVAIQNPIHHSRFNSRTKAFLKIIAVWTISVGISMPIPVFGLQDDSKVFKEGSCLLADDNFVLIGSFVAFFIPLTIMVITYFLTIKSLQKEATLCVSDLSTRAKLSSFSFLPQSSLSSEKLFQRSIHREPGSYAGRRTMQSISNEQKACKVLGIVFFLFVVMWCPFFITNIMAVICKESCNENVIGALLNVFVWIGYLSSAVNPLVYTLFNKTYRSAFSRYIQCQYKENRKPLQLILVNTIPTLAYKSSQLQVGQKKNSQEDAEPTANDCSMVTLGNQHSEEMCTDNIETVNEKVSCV

[7] = Luminescence Cell-Based Dose Confirmation HTS to Identify Inhibitors of Platelet Dense Granule Release. [Related pubchem assays: 1663 (Primary HTS), 1678 (Summary of Project)]; assay type: functional
[8] = target: Luciferin 4-monooxygenase (Photinus pyralis, UniProt P08659); experiment: firefly luciferase enzyme inhibitors, dose response, biochemical, luminescence (AID 1891)
Beta-galactosidase = Beta-galactosidase (Escherichia coli, UniProt Q8VNN2); experiment: Dose response counterscreen for EBI2 assay utilizing the enzyme, b-galactosidase.; assay type: functional
Chain of Beta-galactosidase (Q8VNN2 whole entry): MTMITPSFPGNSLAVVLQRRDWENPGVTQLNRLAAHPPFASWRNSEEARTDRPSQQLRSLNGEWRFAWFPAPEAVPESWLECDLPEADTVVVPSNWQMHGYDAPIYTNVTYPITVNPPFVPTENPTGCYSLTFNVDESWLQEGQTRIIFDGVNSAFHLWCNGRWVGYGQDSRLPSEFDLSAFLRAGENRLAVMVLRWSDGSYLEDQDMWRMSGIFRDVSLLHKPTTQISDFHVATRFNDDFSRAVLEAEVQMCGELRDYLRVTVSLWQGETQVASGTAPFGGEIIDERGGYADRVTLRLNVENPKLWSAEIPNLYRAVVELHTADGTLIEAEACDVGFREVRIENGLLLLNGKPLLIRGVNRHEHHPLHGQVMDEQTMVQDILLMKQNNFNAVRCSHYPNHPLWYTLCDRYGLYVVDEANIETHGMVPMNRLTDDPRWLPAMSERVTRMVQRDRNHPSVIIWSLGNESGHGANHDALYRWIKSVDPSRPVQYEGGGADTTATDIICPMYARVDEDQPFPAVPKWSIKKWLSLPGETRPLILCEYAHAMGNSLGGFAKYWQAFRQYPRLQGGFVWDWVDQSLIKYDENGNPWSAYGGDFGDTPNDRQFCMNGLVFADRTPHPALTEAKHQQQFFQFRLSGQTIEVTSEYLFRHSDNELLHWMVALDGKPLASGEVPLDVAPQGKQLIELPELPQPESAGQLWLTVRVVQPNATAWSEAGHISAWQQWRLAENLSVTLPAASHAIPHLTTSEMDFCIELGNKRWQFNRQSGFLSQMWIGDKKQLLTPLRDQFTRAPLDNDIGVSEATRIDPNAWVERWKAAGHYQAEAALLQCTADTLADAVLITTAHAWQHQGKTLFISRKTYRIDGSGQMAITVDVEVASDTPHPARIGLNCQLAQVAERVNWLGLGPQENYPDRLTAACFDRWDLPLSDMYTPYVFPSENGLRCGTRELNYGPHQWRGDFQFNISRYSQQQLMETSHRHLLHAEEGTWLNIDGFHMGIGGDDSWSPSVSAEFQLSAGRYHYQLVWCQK

[9] = target: T5, Alkaline phosphatase, tissue-nonspecific isozyme (Homo sapiens, UniProt P05186)
T5 sequence (P05186 whole entry): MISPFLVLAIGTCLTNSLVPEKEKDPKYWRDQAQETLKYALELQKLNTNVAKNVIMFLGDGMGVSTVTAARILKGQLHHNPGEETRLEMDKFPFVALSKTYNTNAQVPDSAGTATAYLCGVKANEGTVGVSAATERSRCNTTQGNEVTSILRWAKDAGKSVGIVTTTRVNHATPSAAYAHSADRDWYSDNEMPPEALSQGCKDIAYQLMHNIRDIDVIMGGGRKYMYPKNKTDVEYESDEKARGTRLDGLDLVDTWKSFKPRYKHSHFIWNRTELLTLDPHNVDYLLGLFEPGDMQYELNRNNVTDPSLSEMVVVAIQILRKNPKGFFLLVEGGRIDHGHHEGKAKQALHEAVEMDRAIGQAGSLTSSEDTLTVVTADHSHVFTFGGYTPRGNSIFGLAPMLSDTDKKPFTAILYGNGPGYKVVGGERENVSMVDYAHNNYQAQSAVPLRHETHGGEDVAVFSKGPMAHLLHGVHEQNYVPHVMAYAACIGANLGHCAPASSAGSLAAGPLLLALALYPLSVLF

[10] = target: ATP-dependent translocase ABCB1 (Homo sapiens, UniProt P08183); experiment: ABCB1 efflux pump inhibitor potency, dose response, Jurkat-DNR cells, JC-1, flow cytometry (AID 1689); assay type: functional
Beta-lactamase [11] = target: Beta-lactamase (Salmonella choleraesuis (strain SC-B67), UniProt Q5J463)
Chain of Beta-lactamase (Salmonella choleraesuis (strain SC-B67), UniProt Q5J463) (Q5J463 whole entry): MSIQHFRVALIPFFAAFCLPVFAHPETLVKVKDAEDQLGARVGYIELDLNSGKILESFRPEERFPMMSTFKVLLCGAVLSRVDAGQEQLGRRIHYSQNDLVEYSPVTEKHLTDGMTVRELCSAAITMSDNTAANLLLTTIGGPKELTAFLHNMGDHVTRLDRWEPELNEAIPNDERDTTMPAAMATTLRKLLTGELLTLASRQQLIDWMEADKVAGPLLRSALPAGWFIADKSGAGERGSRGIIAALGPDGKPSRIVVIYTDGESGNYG

Beta-lactamase [12] = target: Beta-lactamase (Pseudomonas aeruginosa, UniProt Q79MP6);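 note: biochemical dose-response test of metallo-beta-lactamase enzyme inhibition, read out by epi-absorbance; purified recombinant IMP-1 metallo-beta-lactamase with nitrocefin as substrate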
Chain of Beta-lactamase (Pseudomonas aeruginosa, UniProt Q79MP6) (Q79MP6 whole entry): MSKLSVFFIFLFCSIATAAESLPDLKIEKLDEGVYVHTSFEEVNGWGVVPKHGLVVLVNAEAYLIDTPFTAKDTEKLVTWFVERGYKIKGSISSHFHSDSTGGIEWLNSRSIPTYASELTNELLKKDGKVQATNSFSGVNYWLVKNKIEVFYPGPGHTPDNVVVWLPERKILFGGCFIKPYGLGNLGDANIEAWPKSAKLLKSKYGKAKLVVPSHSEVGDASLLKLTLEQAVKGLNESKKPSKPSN

[13] = target: T6, Small ubiquitin-related modifier 1 (Homo sapiens, UniProt P63165); experiment: inhibitors of SUMO1 peptide binding, dose response, biochemical, fluorescence polarization, uHTS hits (AID 624382); assay type: functional; conditions: read-out: IC50_Mean
T6 sequence (P63165 whole entry): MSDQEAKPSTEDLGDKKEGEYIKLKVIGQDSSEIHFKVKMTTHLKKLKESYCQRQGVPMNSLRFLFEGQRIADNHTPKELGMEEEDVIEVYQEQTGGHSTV

[14] = target: 72 kDa type IV collagenase (Homo sapiens, UniProt P08253); experiment: Dose Response validation of uHTS RPN11 inhibitor hits using a MMP-2 Fluorescence assay.; assay type: functional
[15] = target: T6, Small ubiquitin-related modifier 1; experiment: inhibitors of SUMO1 partner interactions, dose response, biochemical, FRET (AID 624383); assay type: functional; conditions: read-out: IC50_Mean
[16] = target: 26S proteasome non-ATPase regulatory subunit 14 (Homo sapiens, UniProt O00487); experiment: inhibition of proteasome subunit RPN11 – biochemical, fluorescence polarization, uHTS hits, confirmation (AID 602368); assay type: functional
Chain of 26S proteasome non-ATPase regulatory subunit 14 (O00487 whole entry): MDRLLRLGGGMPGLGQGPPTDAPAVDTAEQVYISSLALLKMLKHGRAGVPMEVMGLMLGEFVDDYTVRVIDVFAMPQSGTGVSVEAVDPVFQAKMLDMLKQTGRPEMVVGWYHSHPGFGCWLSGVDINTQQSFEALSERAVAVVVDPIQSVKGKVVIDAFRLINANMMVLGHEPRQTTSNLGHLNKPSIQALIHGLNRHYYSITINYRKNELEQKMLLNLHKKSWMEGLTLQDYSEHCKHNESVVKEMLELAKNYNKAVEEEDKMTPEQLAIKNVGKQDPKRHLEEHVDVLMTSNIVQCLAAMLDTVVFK

[17] = target: T7, Rac GTPase-activating protein 1 (Homo sapiens, UniProt Q9H0H5); experiment: MgcRacGAP GTPase-activating activity inhibitors, confirmation, biochemical, ADP Hunter fluorescence, primary and confirmatory (AID 624330); assay type: functional
T7 sequence (Q9H0H5 whole entry): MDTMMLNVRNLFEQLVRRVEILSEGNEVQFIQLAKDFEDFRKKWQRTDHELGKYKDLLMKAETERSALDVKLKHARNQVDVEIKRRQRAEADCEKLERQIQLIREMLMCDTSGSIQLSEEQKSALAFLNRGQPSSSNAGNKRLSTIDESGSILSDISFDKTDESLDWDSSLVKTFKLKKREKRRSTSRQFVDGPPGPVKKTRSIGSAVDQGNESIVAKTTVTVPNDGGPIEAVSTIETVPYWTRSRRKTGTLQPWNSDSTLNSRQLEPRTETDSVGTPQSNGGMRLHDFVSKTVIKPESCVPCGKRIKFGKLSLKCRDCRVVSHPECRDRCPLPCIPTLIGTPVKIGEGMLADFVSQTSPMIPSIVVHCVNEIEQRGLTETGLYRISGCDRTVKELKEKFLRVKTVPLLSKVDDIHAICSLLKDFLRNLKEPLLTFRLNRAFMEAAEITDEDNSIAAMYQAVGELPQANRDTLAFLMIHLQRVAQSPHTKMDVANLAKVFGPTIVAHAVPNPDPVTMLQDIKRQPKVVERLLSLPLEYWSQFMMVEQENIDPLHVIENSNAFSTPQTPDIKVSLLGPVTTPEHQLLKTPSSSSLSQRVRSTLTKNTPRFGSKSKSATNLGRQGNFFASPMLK

Prothrombin = Prothrombin (Bos taurus, UniProt P00735); experiment: thrombin inhibition, dose response, biochemical, fluorescence polarization, uHTS hits (AID 602369); assay type: functional
[18] = target: T8, Sentrin-specific protease 1 (Homo sapiens, UniProt Q9P0U3); experiment: Dose response confirmation of small molecule inhibitors of the catalytic domain of the SUMO protease, SENP1 in a FRET assay.; assay type: functional; conditions: read-out: IC50_Mean
T8 sequence (Q9P0U3 whole entry, the tested form may be a part): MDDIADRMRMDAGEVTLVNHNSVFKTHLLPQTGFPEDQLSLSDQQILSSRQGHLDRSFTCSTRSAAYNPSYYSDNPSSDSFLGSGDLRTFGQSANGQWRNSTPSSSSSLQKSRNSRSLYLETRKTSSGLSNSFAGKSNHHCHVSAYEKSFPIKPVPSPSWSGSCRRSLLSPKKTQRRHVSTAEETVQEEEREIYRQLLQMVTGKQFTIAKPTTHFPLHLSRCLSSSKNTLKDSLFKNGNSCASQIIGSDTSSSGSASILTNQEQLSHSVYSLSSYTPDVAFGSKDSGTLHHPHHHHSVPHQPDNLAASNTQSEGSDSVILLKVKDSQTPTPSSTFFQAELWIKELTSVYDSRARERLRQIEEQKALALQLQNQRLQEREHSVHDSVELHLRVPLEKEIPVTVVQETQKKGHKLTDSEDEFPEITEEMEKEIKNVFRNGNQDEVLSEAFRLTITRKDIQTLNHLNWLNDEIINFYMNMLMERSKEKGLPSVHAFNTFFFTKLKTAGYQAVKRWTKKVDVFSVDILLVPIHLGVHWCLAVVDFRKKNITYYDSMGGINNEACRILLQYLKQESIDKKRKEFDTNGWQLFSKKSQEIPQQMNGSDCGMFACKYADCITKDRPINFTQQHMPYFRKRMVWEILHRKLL

[19] = target: T8, Sentrin-specific protease 1; experiment: potency of human SENP1 inhibitors, dose response, biochemical, kinetic FRET (AID 651697); assay type: functional; conditions: read-out: IC50_Mean
[20] = NIH/3T3 fibroblast cytotoxicity, dose response, cytotoxicity control for T. cruzi growth inhibitor project, cell-based, cherry-pick samples, set 2 (AID 651817); assay type: functional; conditions: NIH3T3

CCCn1c(-c2cc(OC)c(OC)c(OC)c2)nc2c1c(=O)[nH]c(=O)n2Cc1ccccc1
IC50 [1]: 1.32 µM (active)

CCc1ccc(NC(=S)N(Cc2ccc(Cl)cc2)Cc2ccc(C(=O)O)cc2)cc1
AC50 [2]: > 100 µM (inactive)

CCOC(=O)c1c(-c2ccc(-c3ccccc3)cc2)csc1NC(=O)C1C2CCC(O2)C1C(=O)O (stereo not given)
IC50 [3]: 15.3 µM (active)
IC50 [4]: 5.15 µM (active)
IC50 (Aspartyl aminopeptidase): 38.5 µM (not active)
IC50 (Genome polyprotein): 29.6 µM (active)
IC50 (Procathepsin L): > 59.6 µM (not active)
Ki (fMet-Leu-Phe receptor): > 66.7 µM (inactive)
IC50 (Leucine aminopeptidase): 6.09 µM (active)

Nc1nc(CN2CCN(c3ccccc3)CC2)nc(N2CCCc3ccccc32)n1
EC50 [5]: 9.04 µM (active)
EC50 (Streptococcus): > 150 µM (not active)
EC50 (Streptokinase A): > 150 µM (not active)
EC50 (Mu-type opioid receptor): 92.5 µM (inactive)
EC50 [6]: 0.939 µM (active)

CNC(=O)/C(C#N)=C/c1ccc(-c2nc3ccccc3s2)o1
EC50 [7]: > 112 µM (not active)
EC50 [8]: > 112 µM (not active)
IC50 (Beta-galactosidase): > 80 µM (inactive)

CCN1/C(=C/C=C/c2oc3ccc4ccccc4c3[n+]2CC)Oc2ccc3ccccc3c21
EC50 [9]: > 100 µM (not active)
EC50 [10]: 0.713 µM (active)
IC50 (Beta-lactamase [11]): > 59.6 µM (inactive)
IC50 (Beta-lactamase [12]): > 59.6 µM (inactive)

CCCc1c(C)nc2ccc(C(=O)O)cc2c1S
IC50 [13]: > 66.6 µM (inactive)
IC50 [14]: > 100 µM (inactive)
IC50 [15]: 18 µM (active)
IC50 [16]: 22.8 µM (active)
IC50 [17]: 72.6 µM (active)
IC50 (Prothrombin): 72.7 µM (active)

CC(=O)Oc1ccc(Cl)cc1/C=C/c1ccc2ccccc2n1
IC50 [18]: 2.22 µM (active)
IC50 [19]: 3.28 µM (active)

C[C@@H]1CN([C@H](C)CO)C(=O)c2cccc(NC(=O)c3nc4ccccc4s3)c2O[C@H]1CN(C)S(=O)(=O)c1ccccc1
AC50 [20]: 39 µM (inactive)
